{"source": "patent US5610038A", "about": "“Thiangazole, its preparation, compositions and use thereof” (Ciba-Geigy Corporation, priority 1990, dated 1997)", "key": {"Botrytis cinerea": {"test_system": "Botrytis cinerea", "test": "Antibiotic activity, agar diffusion test / series dilution test", "assay_type": "cell-based", "experimental": "(§1) The antibiotic activity is determined by means of an agar diffusion test with reference to the inhibiting areola diameter, or from the culture density in a series dilution test."}, "Gibberella fujikuroi": {"test_system": "Gibberella fujikuroi", "test": "Antibiotic activity, agar diffusion test / series dilution test", "assay_type": "cell-based", "experimental": "as §1"}, "Mucor hiemalis": {"test_system": "Mucor hiemalis", "test": "Antibiotic activity, agar diffusion test / series dilution test", "assay_type": "cell-based", "experimental": "as §1"}, "Pythium debaryanum": {"test_system": "Pythium debaryanum", "test": "Antibiotic activity, agar diffusion test / series dilution test", "assay_type": "cell-based", "experimental": "as §1"}, "Rhizopus arrhizus": {"test_system": "Rhizopus arrhizus", "test": "Antibiotic activity, agar diffusion test / series dilution test", "assay_type": "cell-based", "experimental": "as §1"}, "Ustilago maydis": {"test_system": "Ustilago maydis", "test": "MIC, agar diffusion test / series dilution test", "assay_type": "cell-based", "details": "Mycosarcoma maydis", "experimental": "as §1"}, "[1]": {"test_system": "sub-mitochondrial particles of deer heart", "test": "NADH oxidation in sub-mitochondrial particles", "assay_type": "biochemical"}, "[2]": {"test_system": "nematodes such as Haemonchus contortus and Trichostrongylus colubriformis", "test": "F.1. Trial with sheep infested with nematodes", "assay_type": "in vivo", "details": "single dose", "experimental": "F.1. Trial with sheep infested with nematodes such as Haemonchus contortus and Trichostrongylus colubriformis\nThiangazole is administered in the form of a suspension using a stomach probe or by intraruminal injection to sheep that have previously been artificially infested with nematodes, such as Haemonchus contortus and Trichostrongylus colubriformis. 1 to 3 animals are used for each dose per trial. Each sheep is treated only once with a single dose.\n(§2) A first evaluation is made by comparing the number of worm eggs excreted in the faeces of the sheep before and after treatment.\nSeven to ten days after treatment the sheep are sacrificed and dissected. The evaluation is carded out by counting the worms remaining in the intestine after the treatment. Sheep simultaneously and similarly infested but untreated are used as a control or comparison."}, "[3]": {"test_system": "cestodes such as Moniezia benedeni", "test": "F.2. Trial with sheep infested with cestodes", "assay_type": "in vivo", "details": "dose of less than 20 mg/kg body weight, single dose", "experimental": "F.2. Trial with sheep infested wtih cestodes such as Moniezia benedeni\nThe active ingredient is administered in the form of a suspension using a stomach probe or by intraruminal injection to sheep that have previously been artificially infested with cestodes, such as Moniezia benedeni. 1 to 3 animals are used for each dose per trial. Each sheep is treated only once with a single dose. Seven to ten days after treatment the sheep are sacrificed and dissected. The evaluation is carded out by counting the worms remaining in the intestine after the treatment. Sheep simultaneously and similarly infested but untreated are used as a control or comparison. In this test thiangazole effects an approximately 90% reduction in cestode infestation at a dose of less than 20 mg/kg body weight."}, "Dermanyssus gallinae": {"test_system": "Dermanyssus gallinae", "test": "F.3. Action against Dermanyssus gallinae", "assay_type": "in vivo", "details": "72 h, after 3 days, read-out: activity (mortality of the mites)", "experimental": "F.3. Action against Dermanyssus gallinae\n2 to 3 ml of a solution comprising 100 ppm of test compound, and approximately 200 mites at various stages of development, are placed in a glass container that is open at the top. The container is then closed with a cotton wool plug, shaken for 10 minutes until the mites are completely wetted, and then inverted for a short time so that the remaining test solution can be absorbed by the cotton wool. After 3 days, the mortality of the mites is determined as a percentage by counting the number of dead individuals."}, "Lucille sericata": {"test_system": "Lucille sericata", "test": "F.4. Action against Lucille sericata", "assay_type": "in vivo", "details": "10-0.01 ppm, eggs/larvae, 30° C., four days", "experimental": "F.4. Action against Lucille sericata\nFreshly deposited eggs of the blow fly Lucille sericata are introduced in small portions (30-50 eggs) into test tubes in which 4 ml of nutrient medium have previously been mixed with 1 ml of test solution in the intermediate dilution required for the final concentration. After inoculation of the culture medium the test tubes are closed with a cotton wool plug and incubated in an incubator at 30° C. for four days. By this time, larvae approximately 1 cm long (stage 3) have developed in the medium that, for comparison, has not been treated. If a compound is active, the larvae are at this time either dead or moribund and clearly retarded. The test is carried out simultaneously at concentrations of from 10-0.01 ppm. The activity is measured at the lowest fully active concentration (LC 100). The test includes both compounds that are effective by contact and those that are effective as an ingested poison. Repellence is also taken into account, since the larvae migrate from the medium and starve."}, "Lucilia cuprina": {"test_system": "Lucilia cuprina", "test": "F.5. Action against Lucilia cuprina", "assay_type": "in vivo", "details": "test solution comprising 16 ppm, evaluation after 96 hours", "experimental": "F.5. Action against Lucilia cuprina Freshly deposited eggs of the blow fly species Lucilia cuprina are introduced in small portions (30-50 eggs) into test tubes in which 4 ml of nutrient medium have previously been mixed with 1 ml of test solution comprising 16 ppm of the test compound. After inoculation of the culture medium the test tubes are closed with a cotton wool plug and incubated in an incubator at 30° C. for four days. By this time, larvae approximately 1 cm long (stage 3) have developed in the untreated medium. If a compound is active the larvae are at this time either dead or clearly retarded. Evaluation is effected after 96 hours."}, "Fasciola hepatica": {"test_system": "Fasciola hepatica", "test": "F.6. Trial with sheep infested with Fasciola hepatica", "assay_type": "in vivo", "details": "doses of less than 50 mg of active ingredient/kg of body weight, single dose", "experimental": "F.6. Trial with sheep infested with Fasciola hepatica\nThe active ingredient is administered in the form of a suspension using a stomach probe or by intraruminal injection to sheep that have previously been artificially infested with Fasciola hepatica. 3 animals am used for each dose per trial. Each animal is treated only once with a single dose.\nas §2\nThree to four weeks after treatment the sheep are sacrificed and dissected. The evaluation is carried out by counting the liver flukes remaining in the gall-bladder ducts after treatment. Sheep simultaneously and similarly infested but untreated are used as a control or comparison. The difference in the number of liver flukes counted in the two groups gives the degree of effectiveness of the test compound."}, "Heliothis virescens": {"test_system": "Heliothis virescens", "test": "F.7. Ovicidal/larvicidal action against Heliothis virescens", "assay_type": "in vivo", "details": "400 ppm, egg deposits on cotton, 8 days", "experimental": "F.7. Ovicidal/larvicidal action against Heliothis virescens\nEgg deposits of Heliothis virescens on cotton are sprayed with an aqueous emulsion comprising 400 ppm of test compound. 8 days later, the percentage of eggs which have hatched and the survival rate of the caterpillars are evaluated in comparison with untreated controls (% reduction in the population)."}, "Aphis craccivora": {"test_system": "Aphis craccivora", "test": "F.8. Action against Aphis craccivora", "assay_type": "in vivo", "details": "pea seedlings, 3 and 6 days, read-out: activity (percentage reduction in the population)", "experimental": "F.8. Action against Aphis craccivora\nPea seedlings are infested with Aphis craccivora and then sprayed with a spray mixture comprising 400 ppm of the test compound, and incubated at 20° C. Evaluation is made 3 and 6 days later. The percentage reduction in the population (% activity) is determined by comparing the number of dead aphids on the treated plants with that on untreated plants."}, "Tetranychus urticae": {"test_system": "Tetranychus urticae", "test": "F.9 Action against Tetranychus urticae", "assay_type": "in vivo", "details": "144 h, bean plants, 6 days at 25° C., read-out: activity (percentage reduction in the population)", "experimental": "F.9 Action against Tetranychus urticae\nYoung bean plants are populated with a mixed population of Tetranychus urticae and sprayed one day later with an aqueous emulsion comprising 400 ppm of the test compound. The plants are then incubated for 6 days at 25° C. and then evaluated. The percentage reduction in the population (% activity) is determined by comparing the number of dead eggs, larvae and adults on the treated plants with that on untreated plants."}, "[4]": {"test_system": "Heliothis virescens caterpillars", "test": "F.10. Action against Heliothis virescens caterpillars", "assay_type": "in vivo", "details": "400 ppm, soybean plants, first-stage caterpillars, 6 days", "experimental": "F. 10. Action against Heliothis virescens caterpillars\n(§3) Young soybean plants are sprayed with an aqueous emulsion comprising 400 ppm of the test compound. After the spray coating has dried, the soybean plants are populated with 10 Heliothis virescens caterpillars in the first stage and placed in a plastics container. Evaluation is made 6 days later. The percentage reduction in the population or the percentage reduction in feeding damage(% activity) is determined by comparing the number of dead caterpillars and the feeding damage on the treated plants with that on untreated plants."}, "[5]": {"test_system": "Plutella xylostella caterpillars", "test": "F.11. Action against Plutella xylostella caterpillars", "assay_type": "in vivo", "details": "cabbage plants, third-stage caterpillars, 3 days", "experimental": "F. 11. Action against Plutella xylostella caterpillars\nas §3, with “cabbage” for “soybean”, “Plutella xylostella” for “Heliothis virescens”, “third” for “first”, “3” for “6”, “damage (%” for “damage(%”, “plants. […] The activity is over 80%.” for “plants.”"}, "[6]": {"test_system": "benzimidazole-resistant nematodes", "details": "ruminants, doses tolerated by the host animal; cited from earlier work"}, "adult liver flukes": {"test_system": "adult liver flukes", "details": "ruminants, doses tolerated by the host animal; cited from earlier work"}}}
{"smiles": "CNC(=O)c1nc(C2(C)CSC(C3(C)CSC(C4(C)CSC(C=Cc5ccccc5)=N4)=N3)=N2)oc1C", "note": "(stereo not shown) [Thiangazole, thiangazole]", "values": [{"measurement": "growth inhibition of fungus", "setting": "Botrytis cinerea", "result": "inhibits the growth"}, {"measurement": "growth inhibition of fungus", "setting": "Gibberella fujikuroi", "result": "inhibits the growth"}, {"measurement": "growth inhibition of fungus", "setting": "Mucor hiemalis", "result": "inhibits the growth"}, {"measurement": "growth inhibition of fungus", "setting": "Pythium debaryanum", "result": "inhibits the growth"}, {"measurement": "growth inhibition of fungus", "setting": "Rhizopus arrhizus", "result": "inhibits the growth"}, {"measurement": "MIC", "setting": "Ustilago maydis", "result": 3.2, "unit": "µg/mL"}, {"measurement": "inhibition of NADH oxidation", "setting": "[1]", "result": "inhibits NADH oxidation"}, {"measurement": "reduction of nematode infestation", "setting": "[2]; 20 mg of active ingredient per kg of body weight", "result": "virtually complete reduction"}, {"measurement": "reduction in nematode infestation", "setting": "[2]; stomach probe or intraruminal injection", "result": "sharp reduction in nematode infestation"}, {"measurement": "reduction in cestode infestation", "setting": "[3]", "result": "approximately 90%"}, {"measurement": "mortality at 100 ppm", "setting": "Dermanyssus gallinae", "result": "≥ 50", "unit": "%"}, {"measurement": "activity at lowest fully active concentration (LC 100)", "setting": "Lucille sericata", "result": "full activity even at low concentrations"}, {"measurement": "activity against larvae", "setting": "Lucilia cuprina", "result": "very good activity"}, {"measurement": "activity against Fasciola hepatica (liver flukes remaining)", "setting": "Fasciola hepatica", "result": "good activity"}, {"measurement": "ovicidal/larvicidal activity (% reduction in the population)", "setting": "Heliothis virescens", "result": "good activity (The good pesticidal activity of the compounds of formulae I and Ia according to the invention corresponds to a mortality of at least 50-60% of the mentioned pests)"}, {"measurement": "mortality at 400 ppm", "setting": "Aphis craccivora", "result": "≥ 50", "unit": "%"}, {"measurement": "mortality at 400 ppm", "setting": "Tetranychus urticae", "result": "≥ 50", "unit": "%"}, {"measurement": "activity (reduction in the population or in feeding damage)", "setting": "[4]", "result": "very good activity"}, {"measurement": "activity (reduction in the population or in feeding damage)", "setting": "[5]; 400 ppm", "result": "good activity (The good pesticidal activity of the compounds of formulae I and Ia according to the invention corresponds to a mortality of at least 50-60% of the mentioned pests)"}, {"measurement": "activity at 400 ppm", "setting": "[5]; Plutella xylostella, 72 h, read-out: % activity (reduction in the population or in feeding damage)", "result": "> 80", "unit": "%"}]}
{"smiles": "CCCSc1ccc2nc(NC(=O)OC)[nH]c2c1", "note": "[Albendazole]", "values": [{"measurement": "anthelmintic activity", "setting": "[6]", "result": "totally inadequate"}, {"measurement": "anthelmintic activity", "setting": "adult liver flukes", "result": "totally inadequate"}]}
